Reference: US20140100156A1 (SANOFI, priority 2012, published 2014)

What was measured:
Assay type in all cases: in vivo
female NMRI-mice = experiment: Automated assessment of feed intake in mice; details: 22 hours
Experimental: Female NMRI-mice of a body weight between 20 and 30 g were used. Mice were adapted to housing conditions for at least one week and for at least one day single-caged in the assessment equipment, when basal data were recorded simultaneously. On the study day, test product was administered subcutaneously close to the lights-off phase (12 h lights off) and assessment of feed consumption was directly started afterwards. Assessment included continued monitoring (every 30 min) over 22 hours. Repetition of this procedure over several days was possible. Restriction of assessment to 22 hours was for practical reasons to allow for reweighing of animals, refilling of feed and water and drug administration between procedures. Results could be assessed as cumulated data over 22 hours or differentiated to 30 min intervals.
Statistical analyses were performed with Everstat 6.0 by two-way ANOVA on repeated measures and Dunnetts post-hoc analyses. Differences were considered statistically significant at the p<0.05 level.
Fed female NMRI-mice, weighing on average 25-30 g, were administered 0.01 or 0.1 mg/kg of SEQ ID NO: 97 or phosphate buffered saline (vehicle control) subcutaneously, directly prior to start of feeding monitoring (time=0 h). Lights-off phase (dark phase) started 4 hours later.

[1] = system: female diet-induced obese (DIO) C57BL/6NCrl mice; experiment: Acute effect on blood glucose in fed female diet-induced obese (DIO) C57BL/6NCrl mice
Excerpt: (§1) Female C57BL/6NCrl mice were housed in groups in a specific pathogen-free barrier facility on a 12-h light/dark cycle with free access to water and high-fat diet. After 10 months on high-fat diet, mice were stratified to treatment groups (n=8), so that each group had similar mean body weight.
An aged-matched group with ad-libitum access to standard chow was included as standard control group.
Before the experiment, mice were subcutaneously (s.c.) injected with vehicle solution and weighed for 3 days to acclimate them to the procedures.
1) Acute effect on blood glucose in fed DIO mice: initial blood samples were taken just before first administration (s.c.) of vehicle (phosphate buffer solution) or the exendin-4 derivatives at doses of 3, 10, and 100 μg/kg (dissolved in phosphate puffer), respectively. The volume of administration was 5 mL/kg. The animals had access to water and their corresponding diet during the experiment, food consumption was determined at all time points of blood sampling. Blood glucose levels were measured at t=0.5 h, t=1 h, t=2 h, t=4 h, t=6 h, t=8 h, and t=24 h (method: d-glucose hexokinase, hemolysate, AU640 Beckman Coulter). Blood sampling was performed by tail incision without anaesthesia.
(§2) Statistical analyses were performed with Everstat 6.0 by repeated measures two-way ANOVA and Dunnetts post-hoc analyses (glucose profile) and 1-way-ANOVA, followed by Dunnetts post-hoc test (body weight, body fat). Differences versus vehicle-treated DIO control mice were considered statistically significant at the p<0.05 level.
After blood sampling to determine the blood glucose baseline level, fed diet-induced obese female C57BL/6NCrI mice were administered 3, 10 or 100 μg/kg of SEQ ID NO: 97 or phosphate buffered solution (vehicle control on standard or high-fat diet) subcutaneously. At predefined time points, more blood samples were taken to measure blood glucose and generate the blood glucose profile over 24 h.

[2] = Subchronic effect on body weight and body fat in female DIO C57BL/6NCrl mice; details: 4 weeks, mean
Experimental: as §1
2) Subchronic effect on body weight: all animals were treated once daily s.c. in the morning, at the beginning of the light phase (12 h lights on) with either vehicle or exendin-4 derivatives at the abovementioned doses for 4 weeks. Body weight was recorded daily. On days 6 and 28, total fat mass was measured by nuclear magnetic resonance (NMR) using a Bruker minispec (Ettlingen, Germany).
as §2
Female obese C57BL/6NCrl mice were treated for 4 weeks once daily subcutaneously in the morning, at the beginning of the light phase (12 h lights on) with 3, 10 or 100 μg/kg SEQ ID NO: 97 or vehicle. Body weight was recorded daily, and body fat content was determined before the start of treatment and after 4 weeks of treatment.

[3] = system: female leptin-receptor deficient diabetic db/db mice; experiment: Subchronic effect on blood glucose and HbA1c in female db/db mice
Excerpt: Female BKS.Cg-m+/+Leprdb/J (db/db) and BKS.Cg-m+/+Leprdb/+ (lean control) mice were obtained from Charles River Laboratories, Germany, at an age of 9-10 weeks. The animals were housed in groups in a specific pathogen-free barrier facility on a 12-h light/dark cycle with free access to water and rodent-standard chow. After 1 week of acclimatization, blood samples were drawn from the tail without anaesthesia and blood glucose (method: d-glucose hexokinase, hemolysate, AU640 Beckman Coulter) and HbA1c level (method: hemolysate, Cobas6000 c501, Roche Diagnostics, Germany) were determined. […]
2) Subchronic effect on blood glucose and HbA1c: all animals were treated once daily s.c. with either vehicle or exendin-4 derivatives at the abovementioned doses for 4 weeks. At the end of the study, blood samples (tail, no anaesthesia) were analyzed for glucose and HbA1c. […]
Female diabetic mice were treated for 4 weeks once daily subcutaneously with 3, 10 or 100 μg/kg SEQ ID NO: 97 or vehicle. Blood glucose and HbA1c were determined before start of treatment and at the end of the study after 4 weeks of treatment.
Female diabetic mice were treated for 4 weeks subcutaneously with 50 μg/kg SEQ ID NO: 24 or vehicle twice daily. Blood glucose and HbA1c were determined before start of treatment and at the end of the study after 4 weeks of treatment.

Which “reduction of feed intake at the end of the study” value (female NMRI-mice; 0.01 mg/kg s.c.) does the source give for “SEQ ID NO: 97: exendin-4 derivative, K(γE-x53) in position 14 (HXQGTFTSDLSKQKDSRRAQDFIEWLKNGGPSSGAPPPS; K14 side chain γE-x53; Exendin-4-analogue)” here?
Its value is 23%.

And the “reduction of feed intake at the end of the study” value (female NMRI-mice; 0.1 mg/kg s.c.)?
Its value is 66%.

And the “duration of decrease in blood glucose compared to DIO control mice” value (“duration of decrease in blood glucose” below) ([1]; high dose (100 μg/kg s.c.))?
Its value is over 24 h.

What about the “duration of decrease in blood glucose” value ([1]; low dose (3 μg/kg s.c.)) of the same substance?
Its value is “at least 8 h”.

What about the “duration of decrease in blood glucose” value ([1]; medium dose (10 μg/kg s.c.)) of the same substance?
Its value is “at least 8 h”.

What about the Body fat change ([2]; 3 μg/kg s.c. once daily) of the same substance?
Its Body fat change is -0.5 g.

And the Overall weight change ([2]; 3 μg/kg s.c. once daily)?
Its Overall weight change is -0.9 g.

What about the Body fat change ([2]; 10 μg/kg s.c. once daily) of the same substance?
The Body fat change was -2.5 g.

And the Overall weight change ([2]; 10 μg/kg s.c. once daily)?
The Overall weight change was -3.0 g.

And the Body fat change ([2]; 100 μg/kg s.c. once daily)?
Its Body fat change is -2.4 g.

What about the Overall weight change ([2]; 100 μg/kg s.c. once daily) of the same substance?
The Overall weight change was -2.3 g.

What about the “blood glucose level versus db control mice at the end of the study” value ([3]; 3, 10 or 100 μg/kg s.c. once daily, 4 weeks (all dose groups)) of the same substance?
Its value is “significant lower blood glucose level”.

And the “HbA1c level versus db control mice at the end of the study” value ([3]; high dose (100 μg/kg s.c. once daily), 4 weeks)?
The value was “significant lower HbA1c level”.
